Values quoted from earlier work in patent publication US20240307482A1, “TOPICAL COMPOSITIONS” (Illustris Pharmaceuticals, Inc., priority 2019, published 2024).

Tested on: wrinkles
Settings: formulations with 10% concentration acetyl hexapeptide; after 30 days of trial use

In the case of acetyl hexapeptide-3, the “reduce the depth of wrinkles” value is given as “up to 30%”.
